Consider one molecule from patent US7687079B2, “Methods of treating ileus” (priority 2002, dated 2010).

Each structure is given as a SMILES string.

Holding throughout (format): in vivo, rat
Assay [1] concerns small intestinal circular muscle. Description: in vitro circular muscle contractility (spontaneous and bethanechol-stimulated) after SITx. As for the experimental part:
To determine whether CO is protective against ileus associated with small bowel transplantation, orthotopic SITx was performed in syngenic Lewis rats. SITx with caval drainage was performed using a previously described procedure. […] The graft was perfused via the aortic segment with 5 ml chilled Ringer's lactate solution, and the intestinal lumen was irrigated with 20 ml of cold saline solution containing 0.5% neomycin-sulfate (Sigma, St. Louis, Mo.). End-to-side anastomoses between the graft aorta and the recipient infrarenal aorta, and between the graft portal vein and recipient vena cava, were performed with 10-0 Novafil™ suture. The cold ischemic time was 1 hour. The entire recipient intestine was removed and the enteric continuity was restored by proximal and distal end-to-end intestinal anastomoses. Recipient animals were given 20 mg/day prophylactic cefamandole nafate for 3 postoperative days. Transplanted recipients were given water 3 hours after surgery, and were fed 24 hours after surgery.
Four groups of animals were examined in this study, two of which received a SITx. Group 1 consisted of unoperated normal rats. Group 2 animals were exposed to CO with no surgery. In Group 3, syngeneic SITx were performed and the recipients kept in room air. Group 4 consisted of SITx recipients that were placed in the CO chamber for 1 hour before surgery and then re-exposed to CO immediately following surgery until sacrificed. In both Groups 3 and 4, normal LEW rats served as donors.
The animals were exposed to CO at a concentration of 250 ppm. Briefly, 1% CO in air was mixed with air (21% oxygen) in a stainless steel mixing cylinder and then directed into a 3.70 ft^3 glass exposure chamber at a flow rate of 12 L/min. A CO analyzer (Interscan, Chatsworth, Calif.) was used to measure CO levels continuously in the chamber. CO concentrations were maintained at 250 ppm at all times. The animals were supplied food and water during the exposures.
The effect of CO treatment on intestinal dysmotility in transplanted grafts was assessed both in vitro and in vivo. […] In vitro circular muscle mechanical activity was measured as previously described (Eskandari et al., Am. J. Physiol. 273(3 Pt 1):G727-34 (1997)). Rats were anesthetized and killed by exsanguination 24 hours post-operatively. A segment of mid-jejunum was pinned in a Sylgaard™ lined dissecting dish containing pre-oxygenated Krebs-Ringer-bicarbonate buffer (KRB; in mM: 137.4 Na^+, 5.9 K^+, 2.5 Ca^2+, 1.2 Mg^2+, 134 Cl^−, 15.5 HCO3^−, 1.2 H2PO4^−, and 11.5 glucose) that was equilibrated with 97% O2/3% CO2. The intestine was opened along the mesenteric border and the mucosa removed by stripping with fine forceps. Full-thickness strips of muscularis (1×6 mm) were cut parallel to the circular muscle layer. Muscle strips were mounted in standard horizontal mechanical organ chambers that were continuously superfused with pre-oxygenated KRB maintained at 37° C. One end of each strip was attached by ligature to a fixed post and the other to an isometric force transducer (WPI, Sarasota, Fla.). Strips were allowed to equilibrate for 1 hour, after which they were incrementally stretched to the length at which maximal spontaneous contraction occurred (Lo). […] Contractile activity was calculated by integrating the area under the trace, normalized by converting the weight and length of the strip to square millimeters of tissue (1.03 mg/mm^2), and reported as g/s/mm^2.

The next assay has as its system ICAM-1 mRNA. Description: ICAM-1 mRNA expression in muscularis externae of intestinal grafts (real time RT-PCR). Particulars: SITx recipients treated with CO, 4 hours after reperfusion. The method, then:
(§1) The effects of inhalation of CO on transplant-induced pro-inflammatory and anti-inflammatory gene expression was assessed in muscularis extracts by RT-PCR. Muscularis extemae was collected from normal intestine and transplanted grafts 4 hours postoperatively and snap frozen in liquid nitrogen. This time point falls within the range of maximum inflammatory mediator expression that occurs between 3 and 6 hours following abdominal incision. Total RNA extraction was performed using the guanidium-thiocyanate phenol-chloroform extraction method as described previously (Eskandari et al., Am. J. Clin. Pathol. 75(3):367-370 (1997)). RNA pellets were resuspended in RNA-secure resuspension solution (Ambion Inc., Austin, Tex.), followed by removal of potentially contaminating DNA by treatment with DNase I (DNA-Free Kit, Ambion Inc., Austin, Tex.). Equal aliquots (5 μg) of total RNA from each sample were quantified by spectrophotometry (wavelength […]) and aliquoted at a concentration of 40 ng/μl. Peak mRNA expression was quantified in duplicate by SYBR Green two-step, real-time RT-PCR. […] Real-time PCR data were plotted as the ΔRn, fluorescence signal versus the cycle number. […] Quantification of mRNA expression was normalized to GAPDH and calculated relative to control using the comparative CT method (Schmittgen et al., J. Biochem. Biophys. Methods 46(1-2):69-8 (2000)). […]
(In general: In qPCR the cycle at which signal appears reflects the starting amount.)

In assay [2] the test system is IL-6, IL-1β, TNFα, ICAM-1, COX-2, iNOS, IL-10 mRNA. Description: real time RT-PCR of inflammatory mediators, CO alone without surgery. The following applies: inhalation of CO alone (no surgery). The method, then:
as §1

Regarding `[C-]#[O+]` [CO, carbon monoxide], the peak contractile force in assay [1] (SITx + CO 250 ppm, 100 μM bethanechol) was determined as 3.6±0.7 g/mm^2/s; in assay [1] (unoperated animals treated with CO 250 ppm, bethanechol), 3.2±0.5 g/mm^2/s. Further, the Contractile force in assay [1] (SITx + CO, Table 2) is on record as 3.0 ± 0.4 g/s/mm^2. The spontaneous contractile activity result in assay [1] (transplanted (SITx) rats, CO 250 ppm, 24 hours after reperfusion) was “restored”; in assay [1] (unoperated control rats, CO 250 ppm for 24 hours) it was “no effect”. Also, the ICAM-1 expression entry with ICAM-1 mRNA is on record as “unchanged”. Moreover, in assay [2], the “expression of any of the mediators studied” value is on record as “no effect”.
